Data as given in ChEMBL document CHEMBL4390635, “α-Glucosidase inhibition activity and in silico study of 2-(benzo[d][1,3]dioxol-5-yl)-4H-chromen-4-one, a synthetic derivative of flavone” (Bioorg Med Chem, 2019).
Values belong to the compound of their own block, whether it stands above or below them. The source made the active and inactive calls. No cut-off for these calls is given here.

Tests used:
[1] = tested on: Saccharomyces cerevisiae; test: Inhibition of Saccharomyces cerevisiae alpha-glucosidase at 669.57 uM incubated for 30 mins before pNPG substrate addition and measured after 10 mins by spectrophotometry relative to untreated control
[2] = tested on: Saccharomyces cerevisiae; test: Competitive inhibition of Saccharomyces cerevisiae alpha-glucosidase incubated for 30 mins before pNPG substrate addition and measured after 10 mins by spectrophotometry based Michaelis-Menten equation and Lineweaver-Burk plot analysis
[3] = molecular target: Alpha glucosidase (Homo sapiens, UniProt O43451+P10253+P14410+Q2M2H8); test: Inhibition of alpha-glucosidase (unknown origin) incubated for 20 mins before pNPG substrate addition and measured after 30 mins by UV spectrometry; assay type: protein assay
[4] = tested on: Saccharomyces cerevisiae; test: Inhibition of Saccharomyces cerevisiae alpha-glucosidase at 3.54 uM incubated for 30 mins before pNPG substrate addition and measured after 10 mins by spectrophotometry relative to untreated control
[5] = tested on: Saccharomyces cerevisiae; test: Inhibition of Saccharomyces cerevisiae alpha-glucosidase at 27.62 uM incubated for 30 mins before pNPG substrate addition and measured after 10 mins by spectrophotometry relative to untreated control
[6] = tested on: Saccharomyces cerevisiae; test: Inhibition of Saccharomyces cerevisiae alpha-glucosidase incubated for 30 mins before pNPG substrate addition and measured after 10 mins by spectrophotometry
[7] = tested on: Saccharomyces cerevisiae; test: Non-competitive inhibition of Saccharomyces cerevisiae alpha-glucosidase assessed as substrate Km incubated for 15 mins before pNPG substrate addition and measured for 180 secs by spectrophotometry based Michaelis-Menten equation and Lineweaver-Burk plot analysis
[8] = tested on: Saccharomyces cerevisiae; test: Non-competitive inhibition of Saccharomyces cerevisiae alpha-glucosidase assessed as substrate Vmax incubated for 15 mins before pNPG substrate addition and measured for 180 secs by spectrophotometry based Michaelis-Menten equation and Lineweaver-Burk plot analysis

inhibition [1]: 97.7% | inhibition [2]: Active
Compound: C[C@H]1O[C@H](O[C@H]2[C@H](O)[C@@H](O)[C@@H](O[C@H]3[C@H](O)[C@@H](O)C(O)O[C@@H]3CO)O[C@@H]2CO)[C@H](O)[C@@H](O)[C@@H]1N[C@H]1C=C(CO)[C@@H](O)[C@H](O)[C@H]1O (some centres undefined)

IC50 [3]: 23.07 µM
Compound: H-RVPSLM-OH

inhibition [4]: 8.4% | inhibition [5]: 99.3% | inhibition [6]: Dose-dependent effect | Km [7]: 71.4 µM⁻¹ | Vmax [8]: 0.028 µmol/min
Compound: O=c1cc(-c2ccc3c(c2)OCO3)oc2ccccc12

IC50 [3]: 52 µM
Compound: Cc1cc(=O)oc2c(O)c(O)ccc12 [4-METHYLDAPHNETIN]
